Reference: ChEMBL document CHEMBL5303769, “Data for DCP probe JNJ-42226314” (2023)

Columns and labels:
[1] = biological target: Neutrophil elastase (Homo sapiens) (UniProt P08246); assay: Elastase Serine protease panel; conditions: Compound concentration 10.0 uM
[2] = biological target: Hepatic triacylglycerol lipase (Homo sapiens, UniProt P11150); assay: Hepatic lipase Endocannabinoid related and lipase panel
[3] = biological target: Lysophosphatidylserine lipase ABHD12 (Homo sapiens, UniProt Q8N2K0); assay: hABHD12 Endocannabinoid related and lipase panel
[4] = biological target: Serine protease 1 (Homo sapiens) (UniProt P07477); assay: Trypsin Serine protease panel; conditions: Compound concentration 10.0 uM
[5] = biological target: Delta-type opioid receptor (Homo sapiens) (UniProt P41143); conditions: Compound concentration 10.0 uM
[6] = biological target: Muscarinic acetylcholine receptor M2 (Homo sapiens) (UniProt P08172); conditions: Compound concentration 10.0 uM
[7] = biological target: 5-hydroxytryptamine receptor 2B (Homo sapiens) (UniProt P41595); conditions: Compound concentration 10.0 uM
[8] = biological target: Plasminogen (Homo sapiens) (UniProt P00747); assay: Plasmin Serine protease panel; conditions: Compound concentration 10.0 uM
[9] = biological target: T1, Muscarinic acetylcholine receptor M3 (Homo sapiens, UniProt P20309); assay: GPCRScan assay: inhibition of M3; parameters: radioligand conc. used [nm] 0.3 – 1.0, parental cells stable CHO
Rattus norvegicus = species: Rattus norvegicus; conditions: Compound concentration 10.0 uM
[10] = biological target: Histamine H1 receptor (Homo sapiens) (UniProt P35367); conditions: Compound concentration 10.0 uM
[11] = biological target: D(2) dopamine receptor (Homo sapiens) (UniProt P14416); conditions: Compound concentration 10.0 uM
[12] = biological target: Histamine H2 receptor (Homo sapiens) (UniProt P25021); conditions: Compound concentration 10.0 uM
[13] = biological target: D(3) dopamine receptor (Homo sapiens) (UniProt P35462); conditions: Compound concentration 10.0 uM
[14] = biological target: Tissue-type plasminogen activator (Homo sapiens) (UniProt P00750); assay: TPA Serine protease panel; conditions: Compound concentration 10.0 uM
[15] = biological target: 5-hydroxytryptamine receptor 6 (Homo sapiens) (UniProt P50406); conditions: Compound concentration 10.0 uM
[16] = biological target: Urokinase-type plasminogen activator (Homo sapiens) (UniProt P00749); assay: Urokinase Serine protease panel; conditions: Compound concentration 10.0 uM
[17] = biological target: Mu-type opioid receptor (Homo sapiens) (UniProt P35372); conditions: Compound concentration 10.0 uM
Endothelial lipase = Endothelial lipase (Homo sapiens, UniProt Q9Y5X9); assay: Endothelial lipase Endocannabinoid related and lipase panel
[18] = biological target: Muscarinic acetylcholine receptor M5 (Homo sapiens) (UniProt P08912); conditions: Compound concentration 10.0 uM
[19] = biological target: 5-hydroxytryptamine receptor 1A (Homo sapiens) (UniProt P08908); conditions: Compound concentration 10.0 uM
[20] = biological target: Alpha-2C adrenergic receptor (Homo sapiens) (UniProt P18825); conditions: Compound concentration 10.0 uM
[21] = biological target: Sigma non-opioid intracellular receptor 1 (Homo sapiens) (UniProt Q99720); conditions: Compound concentration 10.0 uM
[22] = biological target: Kallikrein-1 (Homo sapiens) (UniProt P06870); assay: Kallikrein Serine protease panel; conditions: Compound concentration 10.0 uM
[23] = biological target: Sodium-dependent noradrenaline transporter (Homo sapiens) (UniProt P23975); conditions: Compound concentration 10.0 uM
[24] = biological target: Kappa-type opioid receptor (Homo sapiens) (UniProt P41145); conditions: Compound concentration 10.0 uM
Tryptase (Homo sapiens) = Tryptase (Homo sapiens) (UniProt Q9BZJ3+Q15661+Q9NRR2); assay: Tryptase Serine protease panel; conditions: Compound concentration 10.0 uM
[25] = biological target: Sodium-dependent serotonin transporter (Homo sapiens) (UniProt P31645); conditions: Compound concentration 10.0 uM
[26] = biological target: Histamine H3 receptor (Homo sapiens) (UniProt Q9Y5N1); conditions: Compound concentration 10.0 uM
[27] = biological target: Alpha-2A adrenergic receptor (Homo sapiens) (UniProt P08913); conditions: Compound concentration 10.0 uM
[28] = biological target: 5-hydroxytryptamine receptor 3A (Homo sapiens) (UniProt P46098); conditions: Compound concentration 10.0 uM
[29] = biological target: Chymotrypsin (Homo sapiens) (UniProt Q99895+P17538+P40313+Q6GPI1); assay: Chymotrypsin Serine protease panel; format: protein assay; conditions: Compound concentration 10.0 uM
D(1B) dopamine receptor [30] = biological target: T2, D(1B) dopamine receptor (Homo sapiens, UniProt P21918); conditions: Compound concentration 10.0 uM
[31] = biological target: D(4) dopamine receptor (Homo sapiens) (UniProt P21917); conditions: Compound concentration 10.0 uM
Lipoprotein lipase = Lipoprotein lipase (Homo sapiens, UniProt P06858); assay: Lipoprotein lipase Endocannabinoid related and lipase panel
[32] = biological target: Beta-3 adrenergic receptor (Homo sapiens) (UniProt P13945); conditions: Compound concentration 10.0 uM
[33] = biological target: Beta-1 adrenergic receptor (Homo sapiens) (UniProt P08588); conditions: Compound concentration 10.0 uM
[34] = biological target: Sigma intracellular receptor 2 (Homo sapiens) (UniProt Q5BJF2); conditions: Compound concentration 10.0 uM
[35] = biological target: Cathepsin G (Homo sapiens) (UniProt P08311); assay: Cathepsin G Serine protease panel; conditions: Compound concentration 10.0 uM
[36] = biological target: Prothrombin (Homo sapiens) (UniProt P00734); assay: Thrombin Serine protease panel; conditions: Compound concentration 10.0 uM
[37] = biological target: Histamine H4 receptor (Homo sapiens) (UniProt Q9H3N8); conditions: Compound concentration 10.0 uM
[38] = biological target: Muscarinic acetylcholine receptor M4 (Homo sapiens) (UniProt P08173); conditions: Compound concentration 10.0 uM
[39] = biological target: Alpha-1A adrenergic receptor (Homo sapiens) (UniProt P35348); conditions: Compound concentration 10.0 uM
[40] = biological target: Alpha-2B adrenergic receptor (Homo sapiens) (UniProt P18089); conditions: Compound concentration 10.0 uM
[41] = biological target: Sodium-dependent dopamine transporter (Homo sapiens) (UniProt Q01959); conditions: Compound concentration 10.0 uM
[42] = biological target: 5-hydroxytryptamine receptor 2A (Homo sapiens) (UniProt P28223); conditions: Compound concentration 10.0 uM
Homo sapiens = species: Homo sapiens; assay: Streptokinase Serine protease panel; conditions: Compound concentration 10.0 uM
[43] = biological target: Monoacylglycerol lipase ABHD6 (Homo sapiens, UniProt Q9BV23); assay: hABHD6 Endocannabinoid related and lipase panel
[44] = biological target: Alpha-1D adrenergic receptor (Homo sapiens) (UniProt P25100); conditions: Compound concentration 10.0 uM
[45] = biological target: Beta-2 adrenergic receptor (Homo sapiens) (UniProt P07550); conditions: Compound concentration 10.0 uM
[46] = biological target: 5-hydroxytryptamine receptor 1D (Homo sapiens) (UniProt P28221); conditions: Compound concentration 10.0 uM
Chymase (Homo sapiens) = Chymase (Homo sapiens) (UniProt P23946); assay: Chymase Serine protease panel; conditions: Compound concentration 10.0 uM
[47] = biological target: Coagulation factor X (Homo sapiens) (UniProt P00742); assay: Factor Xa Serine protease panel; conditions: concentration not given here
[48] = biological target: 5-hydroxytryptamine receptor 5A (Homo sapiens) (UniProt P47898); conditions: Compound concentration 10.0 uM
[49] = biological target: Coagulation factor VII (Homo sapiens) (UniProt P08709); assay: Factor VIIa Serine protease panel; conditions: Compound concentration 10.0 uM
[50] = biological target: 5-hydroxytryptamine receptor 1B (Homo sapiens) (UniProt P28222); conditions: Compound concentration 10.0 uM
[51] = biological target: Alpha-1B adrenergic receptor (Homo sapiens) (UniProt P35368); conditions: Compound concentration 10.0 uM
[52] = biological target: T1, Muscarinic acetylcholine receptor M3; conditions: Compound concentration 10.0 uM
[53] = biological target: 5-hydroxytryptamine receptor 7 (Homo sapiens) (UniProt P34969); conditions: Compound concentration 10.0 uM
[54] = biological target: Myeloblastin (Homo sapiens) (UniProt P24158); assay: Proteinase 3 Serine protease panel; conditions: Compound concentration 10.0 uM
[55] = biological target: 5-hydroxytryptamine receptor 2C (Homo sapiens) (UniProt P28335); conditions: Compound concentration 10.0 uM
[56] = biological target: GABA-A receptor; anion channel (Rattus norvegicus) (UniProt O09028+P15431+P18506+P18508+P19969+P20236+P23574+P23576+P28471+P28473+P30191+P62813+P63079+P63138+Q91ZM7+Q9ES14); conditions: Compound concentration 10.0 uM
D(1B) dopamine receptor [57] = biological target: T2, D(1B) dopamine receptor; assay: GPCRScan assay: inhibition of D5; parameters: radioligand conc. used [nm] 2.0 – 3.0, parental cells HEKT
[58] = biological target: Monoacylglycerol lipase (Homo sapiens); assay: Fluorometric Assay (Inhibition of 4MU-B cleavage)

Sequence of 5-hydroxytryptamine receptor 5A (Homo sapiens) (P47898 whole entry): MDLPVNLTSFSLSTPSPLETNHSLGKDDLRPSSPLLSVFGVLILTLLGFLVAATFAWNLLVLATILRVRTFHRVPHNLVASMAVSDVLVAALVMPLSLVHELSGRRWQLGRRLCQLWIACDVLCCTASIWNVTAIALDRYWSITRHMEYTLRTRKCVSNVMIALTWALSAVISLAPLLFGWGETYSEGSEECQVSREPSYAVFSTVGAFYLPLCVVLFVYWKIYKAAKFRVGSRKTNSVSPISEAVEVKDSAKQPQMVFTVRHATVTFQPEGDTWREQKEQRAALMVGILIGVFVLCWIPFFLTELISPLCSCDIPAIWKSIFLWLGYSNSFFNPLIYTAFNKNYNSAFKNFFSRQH
Sequence of Mu-type opioid receptor (Homo sapiens) (P35372 whole entry): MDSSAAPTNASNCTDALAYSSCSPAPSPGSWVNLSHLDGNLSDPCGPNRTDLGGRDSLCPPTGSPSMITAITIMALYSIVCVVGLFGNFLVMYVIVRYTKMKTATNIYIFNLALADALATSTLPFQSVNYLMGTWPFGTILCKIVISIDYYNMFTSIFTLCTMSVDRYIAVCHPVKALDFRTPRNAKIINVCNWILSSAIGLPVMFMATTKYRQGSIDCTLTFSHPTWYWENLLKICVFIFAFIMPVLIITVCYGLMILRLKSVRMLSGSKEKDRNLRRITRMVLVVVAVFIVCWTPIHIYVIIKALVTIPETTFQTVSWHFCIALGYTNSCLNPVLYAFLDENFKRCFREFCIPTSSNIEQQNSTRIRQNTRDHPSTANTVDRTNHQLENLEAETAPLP
Sequence of Delta-type opioid receptor (Homo sapiens) (P41143 whole entry): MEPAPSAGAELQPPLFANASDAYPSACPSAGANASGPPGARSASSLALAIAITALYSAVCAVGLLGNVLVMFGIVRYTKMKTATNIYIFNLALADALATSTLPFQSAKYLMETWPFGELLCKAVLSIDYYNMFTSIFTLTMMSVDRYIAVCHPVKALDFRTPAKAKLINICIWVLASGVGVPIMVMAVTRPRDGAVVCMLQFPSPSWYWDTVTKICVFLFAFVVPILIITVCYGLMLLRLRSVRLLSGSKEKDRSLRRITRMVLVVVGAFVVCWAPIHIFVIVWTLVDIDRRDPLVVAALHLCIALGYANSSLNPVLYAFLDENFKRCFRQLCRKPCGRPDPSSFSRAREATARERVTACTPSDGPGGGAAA
Sequence of Sodium-dependent noradrenaline transporter (Homo sapiens) (P23975 whole entry): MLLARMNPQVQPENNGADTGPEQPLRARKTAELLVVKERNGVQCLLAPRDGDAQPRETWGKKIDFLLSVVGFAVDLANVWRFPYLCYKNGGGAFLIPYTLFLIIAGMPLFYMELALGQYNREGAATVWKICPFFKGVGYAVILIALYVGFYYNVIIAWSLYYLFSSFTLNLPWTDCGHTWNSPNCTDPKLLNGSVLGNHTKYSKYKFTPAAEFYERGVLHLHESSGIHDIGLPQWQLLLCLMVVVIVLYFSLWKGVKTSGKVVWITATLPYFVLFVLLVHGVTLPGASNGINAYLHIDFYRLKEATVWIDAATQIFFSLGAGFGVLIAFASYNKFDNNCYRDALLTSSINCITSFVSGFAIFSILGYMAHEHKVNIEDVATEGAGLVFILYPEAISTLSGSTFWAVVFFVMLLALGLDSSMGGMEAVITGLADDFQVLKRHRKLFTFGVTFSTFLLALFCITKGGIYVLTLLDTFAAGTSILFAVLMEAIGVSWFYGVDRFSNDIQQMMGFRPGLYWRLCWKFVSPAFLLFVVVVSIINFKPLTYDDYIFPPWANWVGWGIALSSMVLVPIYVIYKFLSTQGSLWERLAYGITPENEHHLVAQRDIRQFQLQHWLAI
Sequence of 5-hydroxytryptamine receptor 7 (Homo sapiens) (P34969 whole entry): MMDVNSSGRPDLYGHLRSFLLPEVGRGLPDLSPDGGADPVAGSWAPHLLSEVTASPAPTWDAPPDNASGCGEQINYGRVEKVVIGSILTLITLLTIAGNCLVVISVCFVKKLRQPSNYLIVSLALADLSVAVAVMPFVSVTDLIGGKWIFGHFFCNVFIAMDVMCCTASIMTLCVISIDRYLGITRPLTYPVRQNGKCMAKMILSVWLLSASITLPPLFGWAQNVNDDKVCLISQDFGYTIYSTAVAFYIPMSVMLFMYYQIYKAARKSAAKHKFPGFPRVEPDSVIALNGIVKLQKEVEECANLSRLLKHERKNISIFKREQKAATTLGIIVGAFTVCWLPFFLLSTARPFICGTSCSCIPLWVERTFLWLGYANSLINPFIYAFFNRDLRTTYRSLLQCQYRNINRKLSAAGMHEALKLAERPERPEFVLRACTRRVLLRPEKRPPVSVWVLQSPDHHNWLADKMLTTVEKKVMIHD
Sequence of Alpha-2A adrenergic receptor (Homo sapiens) (P08913 whole entry): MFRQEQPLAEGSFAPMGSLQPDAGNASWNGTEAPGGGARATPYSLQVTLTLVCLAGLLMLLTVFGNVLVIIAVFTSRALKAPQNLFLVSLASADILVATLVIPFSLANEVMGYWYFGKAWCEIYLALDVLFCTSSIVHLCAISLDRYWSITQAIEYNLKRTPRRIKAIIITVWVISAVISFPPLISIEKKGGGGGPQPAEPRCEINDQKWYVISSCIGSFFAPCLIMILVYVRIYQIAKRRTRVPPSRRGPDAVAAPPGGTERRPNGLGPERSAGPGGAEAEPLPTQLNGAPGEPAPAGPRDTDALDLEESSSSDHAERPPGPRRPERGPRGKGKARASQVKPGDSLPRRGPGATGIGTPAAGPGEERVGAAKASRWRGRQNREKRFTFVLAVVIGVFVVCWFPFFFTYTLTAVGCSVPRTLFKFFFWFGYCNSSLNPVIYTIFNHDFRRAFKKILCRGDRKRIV
Sequence of 5-hydroxytryptamine receptor 2B (Homo sapiens) (P41595 whole entry): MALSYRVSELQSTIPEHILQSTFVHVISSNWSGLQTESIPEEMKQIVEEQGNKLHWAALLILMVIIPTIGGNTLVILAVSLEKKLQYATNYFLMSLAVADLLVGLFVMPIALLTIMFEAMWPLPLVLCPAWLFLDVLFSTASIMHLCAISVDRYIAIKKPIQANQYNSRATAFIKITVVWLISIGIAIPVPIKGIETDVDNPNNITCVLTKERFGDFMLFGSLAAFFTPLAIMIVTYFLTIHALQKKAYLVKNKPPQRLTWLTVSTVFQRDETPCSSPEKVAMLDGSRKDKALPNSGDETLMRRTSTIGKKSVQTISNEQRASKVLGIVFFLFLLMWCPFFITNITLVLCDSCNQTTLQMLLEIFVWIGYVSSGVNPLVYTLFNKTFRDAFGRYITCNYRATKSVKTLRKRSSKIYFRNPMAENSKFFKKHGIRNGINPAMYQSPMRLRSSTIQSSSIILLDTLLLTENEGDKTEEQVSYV
Sequence of Sigma non-opioid intracellular receptor 1 (Homo sapiens) (Q99720 whole entry): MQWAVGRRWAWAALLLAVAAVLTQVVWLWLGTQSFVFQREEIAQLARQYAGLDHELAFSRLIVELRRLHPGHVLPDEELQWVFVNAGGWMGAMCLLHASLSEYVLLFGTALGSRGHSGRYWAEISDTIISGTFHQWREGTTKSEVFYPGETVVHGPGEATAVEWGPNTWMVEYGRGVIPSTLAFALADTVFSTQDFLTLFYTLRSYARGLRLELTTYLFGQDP
Sequence of D(3) dopamine receptor (Homo sapiens) (P35462 whole entry): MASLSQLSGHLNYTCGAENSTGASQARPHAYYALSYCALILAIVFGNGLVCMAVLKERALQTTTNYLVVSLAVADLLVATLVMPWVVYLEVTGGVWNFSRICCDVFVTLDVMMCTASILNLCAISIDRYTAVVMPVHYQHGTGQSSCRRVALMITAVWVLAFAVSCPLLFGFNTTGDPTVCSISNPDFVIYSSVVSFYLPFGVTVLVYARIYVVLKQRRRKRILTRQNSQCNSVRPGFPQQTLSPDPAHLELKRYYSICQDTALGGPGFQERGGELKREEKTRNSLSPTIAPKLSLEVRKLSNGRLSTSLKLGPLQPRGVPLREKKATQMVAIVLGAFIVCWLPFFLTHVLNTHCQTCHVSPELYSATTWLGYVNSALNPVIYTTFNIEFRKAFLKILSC
Sequence of 5-hydroxytryptamine receptor 1B (Homo sapiens) (P28222 whole entry): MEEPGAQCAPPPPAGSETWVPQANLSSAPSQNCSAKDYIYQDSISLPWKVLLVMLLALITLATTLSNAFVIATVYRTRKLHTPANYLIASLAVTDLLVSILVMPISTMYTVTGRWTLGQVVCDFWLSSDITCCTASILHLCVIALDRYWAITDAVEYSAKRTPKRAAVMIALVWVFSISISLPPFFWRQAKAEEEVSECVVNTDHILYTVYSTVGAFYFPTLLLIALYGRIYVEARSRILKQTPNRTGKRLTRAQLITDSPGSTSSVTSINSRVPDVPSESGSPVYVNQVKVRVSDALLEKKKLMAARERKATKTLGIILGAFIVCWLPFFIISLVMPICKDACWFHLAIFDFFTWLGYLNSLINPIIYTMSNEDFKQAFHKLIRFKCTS
Sequence of Beta-1 adrenergic receptor (Homo sapiens) (P08588 whole entry, looked up): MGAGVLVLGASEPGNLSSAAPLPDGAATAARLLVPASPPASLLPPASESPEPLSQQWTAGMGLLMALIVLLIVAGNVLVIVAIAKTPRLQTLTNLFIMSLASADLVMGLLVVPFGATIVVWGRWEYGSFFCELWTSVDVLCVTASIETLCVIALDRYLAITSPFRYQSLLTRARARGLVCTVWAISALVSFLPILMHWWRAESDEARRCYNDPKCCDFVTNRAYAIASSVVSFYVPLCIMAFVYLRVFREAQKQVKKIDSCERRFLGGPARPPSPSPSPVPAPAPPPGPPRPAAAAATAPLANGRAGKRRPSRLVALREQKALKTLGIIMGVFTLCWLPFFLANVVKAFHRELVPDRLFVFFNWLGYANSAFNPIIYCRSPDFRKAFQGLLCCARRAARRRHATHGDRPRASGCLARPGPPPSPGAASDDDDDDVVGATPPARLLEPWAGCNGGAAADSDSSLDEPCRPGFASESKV
Sequence of Sigma intracellular receptor 2 (Homo sapiens) (Q5BJF2 whole entry): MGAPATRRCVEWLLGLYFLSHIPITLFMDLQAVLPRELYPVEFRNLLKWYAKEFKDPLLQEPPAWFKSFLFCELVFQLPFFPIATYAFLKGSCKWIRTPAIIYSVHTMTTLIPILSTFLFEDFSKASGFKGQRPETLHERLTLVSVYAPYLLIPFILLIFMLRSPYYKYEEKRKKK

O=C(c1ccc2c(ccn2-c2ccc(F)cc2)c1)N1CC(N2CCN(C(=O)c3nccs3)CC2)C1
-3%: inhibition [29]
> 10 µM: IC50 [3] | Ki [9] | IC50 [43]
13%: inhibition [35]
0%: inhibition [47]
inactive: inhibition [5] 9.83% | inhibition [6] -3.14% | inhibition [7] 8.47% | inhibition (Rattus norvegicus) -0.52% | inhibition [10] 4.93% | inhibition [11] -9.71% | inhibition [12] 2.62% | inhibition [13] 1.99% | inhibition [15] -9.24% | inhibition [17] 14.5% | inhibition [18] -7.3% | inhibition [19] 11.6% | inhibition [20] 4.03% | inhibition [21] 27.6% | inhibition [23] 8.01% | inhibition [24] 11.1% | inhibition [25] 8.15% | inhibition [26] 19.4% | inhibition [27] 14.2% | inhibition [28] 19.3% | inhibition (D(1B) dopamine receptor [30]) -0.29% | inhibition [31] 0.01% | inhibition [32] 0.7% | inhibition [33] -2.68% | inhibition [34] 27.6% | inhibition [37] -8.52% | inhibition [38] 1.62% | inhibition [39] -2.02% | inhibition [40] 9.63% | inhibition [41] 25.2% | inhibition [42] 7.06% | inhibition [44] 9.02% | inhibition [45] -2.21% | inhibition [46] 18.2% | inhibition [48] 17.7% | inhibition [50] 6.33% | inhibition [51] -6.82% | inhibition [53] 12.8%
2%: inhibition [16] | inhibition (Tryptase (Homo sapiens))
6%: inhibition [14]
-10%: inhibition [4]
7%: inhibition [54]
-1%: inhibition [36]
< 5: pKi [9]
1%: inhibition (Homo sapiens)
-5%: inhibition [49]
> 30 µM: IC50 [2] | IC50 (Endothelial lipase) | IC50 (Lipoprotein lipase)
11%: inhibition (Chymase (Homo sapiens))
4%: inhibition [1] | inhibition [8] | inhibition [22]
active: inhibition [52] 54.7%

Cc1cc(C(=O)N2CCN(C3CN(C(=O)c4ccc(-c5ccccc5)cc4)C3)CC2)no1
inactive: inhibition [5] 39% | inhibition [6] -3.68% | inhibition [7] 8.86% | inhibition [55] 2.58% | inhibition (Rattus norvegicus) 38% | inhibition [10] 29.9% | inhibition [11] 8.15% | inhibition [56] 36.5% | inhibition [12] 32.4% | inhibition [13] 11.1% | inhibition [15] 17% | inhibition [17] 49.1% | inhibition [18] -4.46% | inhibition [19] 18.1% | inhibition [20] 16.6% | inhibition [21] 37.1% | inhibition [23] 3.51% | inhibition [24] 24.2% | inhibition [25] 22.3% | inhibition [26] 41.2% | inhibition [27] 23.3% | inhibition [28] 9.93% | inhibition [31] 16% | inhibition [32] 23.6% | inhibition [33] -6.07% | inhibition [34] 43.6% | inhibition [37] -7.89% | inhibition [39] -6.9% | inhibition [40] 23% | inhibition [41] 43.5% | inhibition [42] 8.77% | inhibition [44] 10.4% | inhibition [45] 0.18% | inhibition [46] 22.7% | inhibition [48] 11.5% | inhibition [50] 35% | inhibition [51] -7.67% | inhibition [52] 48.9% | inhibition [53] 12.4%
< 5: pKi (D(1B) dopamine receptor [57])
> 10 µM (not active): IC50 [58]
> 10 µM: Ki (D(1B) dopamine receptor [57])
